Residues, ends and D or L forms follow the SMILES beside them.
Assays:
Nucleic Acid [1] = assay: DNA cleaving activity was determined; +++++ indicates 100% of Ser-His cleavage activity; format: functional
Nucleic Acid [2] = assay: DNA cleaving activity was determined; +/- indicates marginally detectable cleavage activity; format: functional

How did the Activity (Nucleic Acid [1]) turn out when `N[C@@H](CO)C(=O)N[C@@H](Cc1c[nH]cn1)C(=O)O` (H-Ser-His-OH) was run?
Its Activity is “++++”.

Which Activity (Nucleic Acid [2]) does the source give for `C[C@@H](O)[C@H](N)C(=O)N[C@@H](Cc1c[nH]cn1)C(=O)O` (H-Thr-His-OH) here?
The Activity was “+/-”.

Source: ChEMBL document CHEMBL1146799, “Molecular modeling on DNA cleavage activity of seryl-histidine and related dipeptide” (Bioorg Med Chem Lett, 2004)
